Data published in US8900551B2, “Peptide which passes through blood-brain barrier and targets apoptosis of neurodegenerative brain disease site and uses thereof” (Kyungpook National University Industry-Academic Cooperation …, priority 2009, dated 2014).
Where no end group is shown, it is not given here.

Experiments:
[1] = system: apoptotic cells within Alzheimer's disease-affected brain tissues; experiment: Immunofluorescence staining analysis of Alzheimer's disease-affected brain tissues injected with FITC-labeled peptide; assay type: in vivo; settings: frozen brain sections, Alzheimer's disease-affected mouse 13 months old
Protocol: For histological examination, the brain tissues isolated from the mouse (13 months old) injected with the inventive peptide labeled with FITC fluorescence (green), which had been subjected to in vivo imaging in Example <1-1>, were postfixed by 4% paraformaldehyde liquid, and immersed in Sucrose/phosphate buffer for 24 hours. Then, they were prepared as frozen sections with a thickness of 30 μm by cryostat. Immunofluorescence staining on an antibody was carried out by using a secondary antibody labeled with alexa 568 (red fluorescent dye). Each tissue slide was observed by a fluorescence microscope (Zeiss).

[2] = system: apoptotic cells within Alzheimer's disease-affected brain tissues; experiment: In vivo near infrared imaging of Alzheimer's disease model mice with Cy7.5-labeled peptide; set-up: species or system mouse; settings: intravenous
Description: (§1) As an Alzheimer's disease model, a transgenic mouse model over-expressing Amyloid precursor protein (APP) gene and Presenilin 1 (PS1) gene was used. The model animal has a characteristic that apoptosis together with extracellular accumulation of beta amyloid protein (one of the characteristics of Alzheimer's disease) gradually increases according to an increase of age. On mice, from a 5 month old mouse (early stage of alzheimer's disease) to a 13 month old mouse (severe stage), this experiment was performed according to the progression of disease. The apoptosis was confirmed by TUNEL (in vitro terminal deoxynucleotidyl transferase-mediated dUTP nick-end labeling) assay according to the manufacturer (Roche)'s instructions. In this method, biotin-dUTP is labeled at the end of a cleaved DNA fragment specifically occurring in apoptosis by using terminal deoxynucleotidyl transferase enzyme, and then fluorescence staining is performed by streptavidin-rhodamine (red fluorescent dye).
The Alzheimer's disease-affected mouse (5, 7, 9, and […]) models were intravenously injected with the inventive peptide (ApoPep-1) labeled with Cy7.5 near infrared fluorescence, under isoflurane anesthesia, to a final concentration of 50 μM. After 2 hours from the injection, a head region was imaged by near infrared imaging, and each brain was isolated and imaged by near infrared imaging. An in vivo near infrared fluorescence image was imaged by an Optix exPlore machine (ART). Also, by using the machine's own software, each image was standardized.
The peptide used in the present invention was synthesized by a standard Fmoc method, and separated by HPLC machine. The synthesis of the peptide was carried out by special companies (Peptron and Anygen). The peptide was synthesized in such a manner that N-terminal was combined with fluorescein isothiacyanate (FITC). Otherwise, after the synthesis of the peptide, N-terminal was combined with Cy7.5 near infrared fluorescent dye.

[3] = system: apoptotic cells within Parkinson's disease-affected brain tissues; experiment: In vivo near infrared imaging of MPTP-induced Parkinson's disease mice with Cy7.5-labeled peptide; set-up: species or system mouse; settings: for near infrared fluorescence at the brain region: Cy7.5-labeled, intravenous, 2 hours
Protocol: (§2) Parkinson's disease was induced by specifically destroying a dopaminergic neuron existing in substantia nigra of a brain by a drug. For this, to each of C57BL male mice (koatech) (body weight: 21 to 23 g), MPTP (1-methyl-4-phenyl-1,2,3,6-tetrahydro pyridine hydrochloride) (Sigma) was administered with a single dose of 15 mg/kg. MPTP administration was carried out with an interval of 2 hours, four times through intraperitoneal injection, and each mouse was administered with MPTP in a total amount of 60 mg/kg.
(§3) On day 7, 14, and 21 from the administration of MPTP (day 0), the inventive peptide labeled with Cy7.5 was injected. The peptide was intravenously injected into a tail vein to a final concentration of 50 μM, under isoflurane anesthesia, and was circulated for 2 hours. Then, an in vivo near infrared fluorescence image was imaged. The mouse on which the experiment had been completed was immediately subjected to anesthesia and euthanasia. Then, a brain tissue sample was collected. From the dead mouse, blood was immediately removed by saline solution flushing through heart, and primarily fixed by re-flushing of 4% paraformaldehyde solution. The primarily fixed brain was collected from the mouse, and then postfixed by being placed for 1 day in 30% sucrose/phosphate buffer solution, and placed for 1 day in 4% paraformaldehyde phosphate buffer solution. The fixed brain tissues were rapidly frozen by dry ice, and formed into a block for frozen fractions. At some desired time, the stored brain block was prepared as frozen fractions, and used for various staining methods.

[4] = system: apoptotic cells within Parkinson's disease-affected brain tissues; experiment: Immunofluorescence / TUNEL staining of Parkinson's disease-affected brain tissues injected with FITC-labeled peptide; assay type: in vivo, mouse
Description: as §1, with “The apoptosis was confirmed by TUNEL (in vitro terminal deoxynucleotidyl transferase-mediated dUTP nick-end labeling) assay according to the manufacturer (Roche)'s instructions.” left out
[…] Then, an in vivo near infrared fluorescence image was imaged. […]
Also, in order to monitor the therapeutic effect of a drug, after 30 minutes from the administration of MPTP, amantadine used as a Parkinson's disease therapeutic agent was intraperitoneally administered into each mouse in a dose of 25 mg/kg a total of seven times with a one day interval. […] Apoptosis was analyzed in the same manner as described in Example <1-1>.

[5] = system: Parkinson's disease-affected mouse treated with MPTP; experiment: Monitoring the therapeutic effect of amantadine in MPTP-induced Parkinson's disease mice; assay type: in vivo
Protocol: as §2, §3
Also, in order to monitor the therapeutic effect of a drug, after 30 minutes from the administration of MPTP, amantadine used as a Parkinson's disease therapeutic agent was intraperitoneally administered into each mouse in a dose of 25 mg/kg a total of seven times with a one day interval. On day 7 from the administration of amantadine, the inventive peptide labeled with Cy7.5 was injected, and imaging and tissue staining were carried out in the same manner as described above. Apoptosis was analyzed in the same manner as described in Example <1-1>.

[6] = Parkinson's disease-affected mouse (MPTP), 50 μM final
[7] = amantadine following MPTP vs MPTP alone, brain tissues

Compound | co-staining of peptide (green) with antibody to Caspase-3 (apoptosis biomarker) [1] | distribution of peptide relative to brain blood vessel (α-SMA antibody staining); passing through blood-brain barrier [1] | near infrared fluorescence intensity level at head region according to disease progression ([2]; APP/PS1 Alzheimer's disease-affected mice 5, 7, 9, 13 months old, Cy7.5-labeled, 50 μM final, 2 hours after injection) | near infrared fluorescence at the brain region, Alzheimer's disease-affected mouse versus normal mouse ([2]; Alzheimer's disease-affected mouse (7 and 9 months old) vs normal (wild type) mouse (8 months old), 2 hours) | near infrared fluorescence at the brain region [3, 6] | near infrared fluorescence at a brain region with the lapse of time ([3]; after 1 week, 2 weeks and 3 weeks from administration of MPTP) | near infrared fluorescence at the brain region ([3]; normal (wild type) mouse) | co-location of peptide (green) with TUNEL staining (apoptosis biomarker) ([4]; brain tissues of MPTP mice and mice administered with amantadine following MPTP (FIG. 7c)) | co-location of peptide (green) with TUNEL staining (apoptosis biomarker) ([4]; brain tissues of Parkinson's disease-affected mouse treated with MPTP, FITC-labeled peptide) | near infrared fluorescence at brain region ([2]; mouse (8 months old), Cy7.5-labeled, 2 hours after injection) | near infrared fluorescence of Cy7.5-labeled inventive peptide at brain region ([5]; amantadine 25 mg/kg intraperitoneal, seven times at one day interval following MPTP, vs mouse administered with MPTP) | number of TUNEL-stained apoptotic cells ([5]; amantadine following MPTP vs MPTP alone) | TUNEL staining (apoptosis biomarker) [5, 7] | antibody staining of tyrosine hydroxylase (TH) (dopaminergic neuron-specific marker) [5, 7] | number of TH-stained dopaminergic neurons ([5]; amantadine following MPTP vs MPTP alone, p<0.01)
inventive peptide: peptide targeting apoptotic cells, amino acid sequence CQRPPR (SEQ ID NO: 1), named ApoPep-1; N-terminal labeled with FITC or Cy7.5 (also: N-terminal FITC or Cy7.5 label) | concurrently stained at the same cell | distributed within brain parenchyma outside of a brain blood vessel | near infrared fluorescence intensity level increased | much stronger near infrared fluorescence at the brain region than the normal mouse | strong near infrared fluorescence was observed | became stronger | hardly observed | located at the same cell | concurrently located at the same cell |  |  |  |  |  | 
control peptide: control peptide (amino acid sequence, NSSSVDK) [reference compound] |  |  |  |  | hardly observed |  |  |  |  | hardly observed |  |  |  |  | 
NC12CC3CC(CC(C3)C1)C2 [amantadine] |  |  |  |  |  |  |  |  |  |  | lower near infrared fluorescence than the mouse administered with MPTP | reduction of apoptosis in neurons | decrease of TUNEL staining | increase of antibody staining of tyrosine hydroxylase | statistically significantly increased
